Experimental data: patent USRE33699E, “Growth hormone-releasing factor analogs” (International Minerals & Chemical Corp., priority 1990, dated 1991)
Square brackets hold non-standard residues; d marks the D form. Peptide text beside a SMILES is read from it. Nle = CCCC[C@H](N)C(=O)O

Tested on: rat pituitary cells
Assay: Bioassay of hGRF analogs: stimulation of growth hormone release in rat pituitary cells in tissue culture
Assay type: cell-based
Settings: for Dose Needed to Release 2.01 μg/ml of GH: 2.01 μg/ml = GH released at the ED50 of hGRF; for Dose Needed to Release 2.01 μg/ml of GH / Relative Maximum Activity (% of hGRF): from ALLFIT curves; for Potency: (ED50 of hGRF)/(Dose required to give same response as ED50 of hGRF)
Excerpt: The assay for biological activity, which is based on the ability to stimulate release of growth hormone in rat pituitary cells in tissue culture, has been described in detail (Culler, M. D.; Kenjo, T.: Obara, N.; Arimuar, A., Stimulation of cAMP. Accumulation by Human Pancreatic GH-Releasing Factor(1-44). Am. J. Physiol. 1984, 247 (Endocrinol.Metab. 10). E609-E615.
ALLFIT, the 4-parameter logistic curve fitting program available from the Biomedical Computer Technology Information Center, Vanderbilt Medical Center, Nashville Tenn., was used to determine ED50 and maximal stimulated values from the data. In several instances, the amount of GH released reached a maximum value and decreased with further increasing doses of the hGRF analogs. To simplify the data analysis, these values were not used in the calculations. The calculated maximal responses, the doses of the analog required to release the amount of GH released at the ED50 of the standard (hGRF) and the potencies of the analogs relative to hGRF, are given in Table 2. Generally all novel analogs were fully active and were able to stimulate the release of growth hormone with maximal values of GH release being within 80% of the value for natural hGRF.

Q: What does the source list for `CCCC[C@H](NC(=O)[C@@H](NC(=O)[C@H](CC(N)=O)NC(=O)[C@H](CCC(N)=O)NC(=O)[C@H](CC(C)C)NC(=O)[C@H](CC(C)C)NC(=O)[C@H](CCCCN)NC(=O)[C@H](CCCNC(=N)N)NC(=O)[C@H](C)NC(=O)[C@H](CO)NC(=O)[C@H](CC(C)C)NC(=O)[C@H](CCC(N)=O)NC(=O)CNC(=O)[C@H](CC(C)C)NC(=O)[C@@H](NC(=O)[C@H](CCCCN)NC(=O)[C@H](CCCNC(=N)N)NC(=O)[C@H](Cc1ccc(O)cc1)NC(=O)[C@H](CO)NC(=O)[C@H](CC(N)=O)NC(=O)[C@@H](NC(=O)[C@H](Cc1ccccc1)NC(=O)[C@@H](NC(=O)[C@H](C)NC(=O)[C@H](CC(N)=O)NC(=O)[C@H](C)NC(=O)[C@@H](N)Cc1ccc(O)cc1)[C@@H](C)CC)[C@@H](C)O)C(C)C)[C@@H](C)CC)C(=O)N[C@@H](CO)C(=O)N[C@@H](CCCNC(=N)N)C(=O)N[C@@H](CCC(N)=O)C(=O)N[C@@H](CCC(N)=O)C(N)=O` [[Asn^3, Asn^25, Nle^27]-hGRF(1-31)--NH2, [Asn^3,Asn^25,Nle^27]-hGRF (1-31)--NH2] (H-YANAIFTNSYRKVLGQLSARKLLQNI[Nle]SRQQ-NH2)?
A: Dose Needed to Release 2.01 μg/ml of GH: 1.54 nM; Potency: 21%; Relative Maximum Activity (% of hGRF): 101 % of hGRF

Q: For `CC[C@H](C)[C@H](NC(=O)[C@H](C)NC(=O)[C@H](CC(=O)O)NC(=O)[C@H](C)NC(=O)[C@@H](N)Cc1ccc(O)cc1)C(=O)N[C@@H](Cc1ccccc1)C(=O)N[C@H](C(=O)N[C@@H](CC(N)=O)C(=O)N[C@@H](CO)C(=O)N[C@@H](Cc1ccc(O)cc1)C(=O)N[C@@H](CCCNC(=N)N)C(=O)N[C@@H](CCCCN)C(=O)N[C@H](C(=O)N[C@@H](CC(C)C)C(=O)NCC(=O)N[C@@H](CCC(N)=O)C(=O)N[C@@H](CC(C)C)C(=O)N[C@@H](CO)C(=O)N[C@@H](C)C(=O)N[C@@H](CCCNC(=N)N)C(=O)N[C@@H](CCCCN)C(=O)N[C@@H](CC(C)C)C(=O)N[C@@H](CC(C)C)C(=O)N[C@@H](CCC(N)=O)C(=O)N[C@@H](CC(=O)O)C(=O)N[C@H](C(=O)N[C@@H](CCSC)C(=O)N[C@@H](CO)C(=O)N[C@@H](CCCNC(=N)N)C(=O)N[C@@H](CCC(N)=O)C(=O)N[C@@H](CCC(N)=O)C(=O)NCC(=O)N[C@@H](CCC(=O)O)C(=O)N[C@@H](CO)C(=O)N[C@@H](CC(N)=O)C(=O)N[C@@H](CCC(N)=O)C(=O)N[C@@H](CCC(=O)O)C(=O)N[C@@H](CCCNC(=N)N)C(=O)NCC(=O)N[C@@H](C)C(=O)N[C@@H](CCCNC(=N)N)C(=O)N[C@@H](C)C(=O)N[C@@H](CCCNC(=N)N)C(=O)N[C@@H](CC(C)C)C(N)=O)[C@@H](C)CC)C(C)C)[C@@H](C)O` [hGRF(1-44)--NH2, reference compound], which “Dose Needed to Release 2.01 μg/ml of GH” value is on record?
A: 0.32 nM

Q: And the Potency?
A: 100%

Q: What about the “Relative Maximum Activity (% of hGRF)” value of the same molecule?
A: 100 % of hGRF

Q: With `CCCC[C@H](NC(=O)[C@@H](NC(=O)[C@H](CC(N)=O)NC(=O)[C@H](CCC(N)=O)NC(=O)[C@H](CC(C)C)NC(=O)[C@H](CC(C)C)NC(=O)[C@H](CCCCN)NC(=O)[C@H](CCCNC(=N)N)NC(=O)[C@H](C)NC(=O)[C@H](CO)NC(=O)[C@H](CC(C)C)NC(=O)[C@H](CCC(N)=O)NC(=O)CNC(=O)[C@H](CC(C)C)NC(=O)[C@@H](NC(=O)[C@H](CCCCN)NC(=O)[C@H](CCCNC(=N)N)NC(=O)[C@H](Cc1ccc(O)cc1)NC(=O)[C@H](CO)NC(=O)[C@H](CC(=O)O)NC(=O)[C@@H](NC(=O)[C@H](Cc1ccccc1)NC(=O)[C@@H](NC(=O)[C@H](C)NC(=O)[C@H](CC(N)=O)NC(=O)[C@H](C)NC(=O)[C@@H](N)Cc1ccc(O)cc1)[C@@H](C)CC)[C@@H](C)O)C(C)C)[C@@H](C)CC)C(=O)N[C@@H](CO)C(=O)N[C@@H](CCCNC(=N)N)C(=O)N[C@@H](CCC(N)=O)C(=O)N[C@@H](CCC(N)=O)C(N)=O` [[Asn^3,Asp^8,Asn^25,Nle^27]-hGRF(1-31)--NH2] (H-YANAIFTDSYRKVLGQLSARKLLQNI[Nle]SRQQ-NH2) as the molecule, how does the “Dose Needed to Release 2.01 μg/ml of GH” value read?
A: 12.05 nM

Q: And the Potency?
A: 5%

Q: What about the Potency (Asp^8, Asn^25, Nle^27 ]) of the same molecule?
A: 3%

Q: And the “Relative Maximum Activity (% of hGRF)” value?
A: 94 % of hGRF
